# Data from patent US20180169030A1, “DRUG CARRIER AND METHOD OF FABRICATING THE SAME” (priority 2016, published 2018).
# Test system: Hepatoma cells
# Conditions: 75 ppm boron-10
# Method: The drug carrier prepared in the above embodiments applied to the boron neutron capture therapy for cells was tested. The test method is described in detail below. Referring to FIG. 8, Tsing Hua Open-pool Reactor (THOR) 200 was used. An acrylic plate 204 was used as a carrier of 96-well plate 210. Hepatoma cells 206 were placed in the 96-well plate. Thermal neutrons 208 were used to irradiate the 96-well plate 210. An acrylic cube 202 was placed behind the carrier to slow down the thermal neutrons 208, so as to shorten the irradiation time.
# Group I represents culture medium. Group J represents a boric acid solution containing 75 ppm of boron-10. Group K represents the drug carrier covering boric acid containing 75 ppm of boron-10. Group L represents the drug carrier without covering boric acid. The vertical axis is cell number percentage (%). The thermal neutron irradiation time was 27.67 minutes. After the thermal neutron irradiation, changes in cell numbers of each group were tested using the cell toxicity analysis kit (Wst-1 assay) after 24 hours.
substance,measurement,setting,value
boric acid,part of mortality rate caused by toxicity of boric acid / by drug carrier (not by irradiation),,40%
same,part of mortality rate caused by irradiation of thermal neutron,irradiation time 27.67 minutes,15%
same,mortality rate after irradiation of thermal neutron,"irradiation time 27.67 minutes, Wst-1 after 24 hours",55%
